Data published in patent US10336746B1, “RAD51 inhibitors” (Cyteir Therapeutics, Inc., priority 2017, dated 2019).

Tests used:
[1] = test system: Daudi cell line (AID positive); test: Primary screening cell killing assay, Daudi cell line (AID positive); assay type: cell-based; conditions: Homo sapiens, 168 h, cell death on Day 7, Cell-Titer Glo
Method: (§1) Primary screening was a phenotypic screen that utilized the synthetic lethal interaction between AID and RAD51 to identify compounds that were both potent and on target. AID expressing cells are dependent upon RAD51 for survival; inhibiting RAD51 in AID positive cells results in a cytotoxic effect.
The first step was to set up a cell killing assay in the Daudi cell line (AID positive). A 96 well u-bottom plate was prepared by writing the experiment number, plate number, date and initials in the top right corner of the plate lid. With a sterile 300 ml reservoir, and 25 ml serological pipette, evaporation buffer media was pipetted into reservoir in 25 ml increments. Using the liquid handler, 150 ul of evaporation buffer media was pipetted from reservoir into rows A and H, and Columns 1 and 12 of the 96 well u-bottom plate. Cell cultures were counted to obtain the density of cells per ml, and the culture viability. The cell density information was used to obtain 1,000,000 cells from culture using a 5 mL serological pipette into an epi tube. The cell density information from the culture was used to calculate the number of cells and volume of media needed for the assay to seed 1250 cells in 130 ul of media per available culture well in the 96 well u-bottom plate. Rows B through F were used for cells (50 wells in total), with row G left for an empty media control. The calculation was overestimated by 10 mL to account for the dead volume in the 300 ml reservoir. Once the media volume was calculated, the appropriate volume of media was pipetted in 25 mL increments into the 250 mL bottle using a 25 mL serological pipette. The 250 ml bottle was capped tightly, and placed into a 37° C. water bath for 2 minutes. While the culture media was warming, 10 mL of fresh media was pipetted from the 500 mL culture media bottle into a sterile 25 mL reservoir. Using the Eppendorf multichannel pipette, 130 ul of media was pipetted from the 25 mL reservoir into row G of the 96 well u-bottom plate. Once the 250 mL bottle of media was warmed, the volume of culture needed was pipetted into the bottle, and mixed gently with a 25 mL serological pipette as to not create bubbles, and then the contents of the bottle were pipetted into a new 300 mL reservoir. Using the liquid handler, 130 ul of culture was pipetted from the 300 mL reservoir into rows B through F of the 96 well u-bottom plate. Once the culture was added, the plate was placed into a 37° C. incubator until the compound master plate was prepared for use.
Two 96 well u-bottom plates were prepared by writing the master plate name in the upper right corner of the plate lid. Labeling one DMSO master and the other Media Master. The compounds of interest were obtained from the laboratory freezer, and placed into a 25 well storage box with a lid, and set the box aside. The compounds were vortexed after thawing but before use. Using an automatic multichannel pipette, 20 ul of 100% DMSO was pipetted into wells B3-B11 through G3-G11 of the DMSO master plate. For each compound on the master plate, 50 ul of the compound were pipetted in the appropriate well of row 2 (reference plate map to determine appropriate well). A serial dilution was prepared beginning by aspirating 20 ul from row 2 and mixing with row 3, repeating until row 11 was reached. Using the liquid handler, 194 ul of Daudi media was dispensed into wells B2-B11 through G2-G11 of the Media master plate. Using the liquid handler, 6 ul from the DMSO master plate was aspirated and dispensed into the media master plate, mixing 100 ul twice.
Compounds from master plate were then added to the culture plate. The culture plates were removed from the incubator, and set inside the biosafety cabinet. Using a liquid handler, 20 ul from wells B2 to B11 through G2 to G11 of master plate were aspirated, and dispensed into wells B2 to B11 through G2 to G11 of culture plate. This set was continued with each culture plate. […]

[2] = test system: WI-38 cells (AID negative); test: Primary screening cell killing assay repeated in WI-38 cells (AID negative); assay type: cell-based; conditions: Homo sapiens, 168 h, cell death on Day 7, Cell-Titer Glo
Method: as §1
Percent cell death and EC50 values were calculated by comparing the cell viability of the compound treated wells to the non-treated wells. Normalized RLU values were obtained by subtracting the media well values from each of the wells in the same column, and then dividing that value by the DMSO treated cells values. The percent kill was then calculated by subtracting the normalized RLU value from 1 and multiplying by 100. The average normalized percent kill value and standard error of the mean was then calculated. The kill values were then inputted into Prism with the corresponding standard errors. In Prism a non-linear regression line was plotted with the data points using a semi-log scale, and the EC50 value was calculated.

Q: With `CC(C)OC(=O)NC12CCC(c3ncc(-c4ccc(NC(=O)N[C@H](C)c5ccccc5)cc4S(=O)(=O)NC(C)(C)C)s3)(CC1)CC2` [Ex. 14, isopropyl (R)-(4-(5-(2-(N-(tert-butyl)sulfamoyl)-4-(3-(1-phenylethyl)ureido)phenyl)thiazol-2-yl)bicyclo[2.2.2]octan-1-yl)carbamate] as the compound, how does the EC50 [1] read?
A: Its EC50 is ≤ 0.1 µM.

Q: What about the EC50 [2] of the same compound?
A: The EC50 was > 1 µM.

Q: Which EC50 [1] does the source give for `CC(C)OC(=O)N[C@H]1CC[C@H](c2ncc(-c3ccc(NC(=O)OCc4ccccn4)cc3S(=O)(=O)NC(C)(C)C)s2)CC1` [Ex. 72, trans-2-pyridylmethyl N-[3-(tert-butylsulfamoyl)-4-[2-[4-(isopropoxycarbonylamino)cyclohexyl]thiazol-5-yl]phenyl]carbamate] here?
A: The EC50 was ≤ 0.1 µM.

Q: What about the EC50 [2] of the same compound?
A: The EC50 was > 1 µM.

Q: How did the EC50 [1] turn out when `CC(C)OC(=O)NC1CCC(c2ncc(-c3ccc(NC(=O)OCc4ccccn4)cc3S(=O)(=O)NC(C)(C)C)s2)CC1` (centres unmarked) [Ex. 42, pyridin-2-ylmethyl (3-(N-(tert-butyl)sulfamoyl)-4-(2-((1r,4r)-4-((isopropoxycarbonyl)amino)cyclohexyl)thiazol-5-yl)phenyl)carbamate] was run?
A: The EC50 was ≤ 0.1 µM.

Q: What about the EC50 [2] of the same compound?
A: Its EC50 is > 1 µM.

Q: What does the source list for `CC(C)OC(=O)Nc1ccc(-c2cnc(C3CC(NC(=O)OC(C)C)C3)s2)c(S(=O)(=O)NC(C)(C)C)c1` (centres unmarked) [Ex. 65, isopropyl N-[3-(tert-butylsulfamoyl)-4-[2-[3-(isopropoxycarbonylamino)cyclobutyl]thiazol-5-yl]phenyl]carbamate]?
A: EC50 [1]: 0.1 to 1 µM; EC50 [2]: > 1 µM

Q: For `CC(C)OC(=O)NC1CCC(c2ncc(-c3ccc(NC(=O)O[C@H](C)c4ccccc4)cc3S(=O)(=O)NC(C)(C)C)s2)CC1` (stereo partly drawn) [Ex. 43, (R)-1-phenylethyl (3-(N-(tert-butyl)sulfamoyl)-4-(2-((1r,4R)-4-((isopropoxycarbonyl)amino)cyclohexyl)thiazol-5-yl)phenyl)carbamate], which EC50 [1] is on record?
A: Its EC50 is 0.1 to 1 µM.

Q: And the EC50 [2]?
A: Its EC50 is > 1 µM.

Q: With `CC(C)OC(=O)N[C@H]1CC[C@H](c2ncc(-c3ccc(NC(=O)O[C@@H](C)c4ccccc4)cc3S(=O)(=O)NC(C)(C)C)s2)CC1` [Ex. 71, trans-[(1S)-1-phenylethyl] N-[3-(tert-butylsulfamoyl)-4-[2-[4-(isopropoxycarbonylamino)cyclohexyl]thiazol-5-yl]phenyl]carbamate] as the compound, how does the EC50 [1] read?
A: The EC50 was ≤ 0.1 µM.

Q: What about the EC50 [2] of the same compound?
A: Its EC50 is > 1 µM.

Q: With `CC(C)OC(=O)NC12CCC(c3ncc(-c4ccc(NC(=O)N[C@@H](C)c5ccccn5)cc4S(=O)(=O)NC(C)(C)C)s3)(CC1)CC2` [Ex. 15, isopropyl (S)-(4-(5-(2-(N-(tert-butyl)sulfamoyl)-4-(3-(1-(pyridin-2-yl)ethyl)ureido)phenyl)thiazol-2-yl)bicyclo[2.2.2]octan-1-yl)carbamate] as the compound, how does the EC50 [1] read?
A: Its EC50 is ≤ 0.1 µM.

Q: And the EC50 [2]?
A: The EC50 was > 1 µM.

Q: Which results are given for `CC(C)OC(=O)N[C@H]1CC[C@H](c2ncc(-c3ccc(NC(=O)N[C@@H](C)c4ccccn4)cc3S(=O)(=O)NC(C)(C)C)s2)CC1` [Ex. 32, isopropyl ((1S,4r)-4-(5-(2-(N-(tert-butyl)sulfamoyl)-4-(3-((S)-1-(pyridin-2-yl)ethyl)ureido)phenyl)thiazol-2-yl)cyclohexyl)carbamate]?
A: EC50 [1]: ≤ 0.1 µM; EC50 [2]: > 1 µM

Q: With `CC(C)OC(=O)NC12CCC(c3ncc(-c4ccc(NC(=O)N[C@@H](C)c5ccccc5)cc4S(=O)(=O)NC(C)(C)C)s3)(CC1)CC2` [Ex. 13, isopropyl (S)-(4-(5-(2-(N-(tert-butyl)sulfamoyl)-4-(3-(1-phenylethyl)ureido)phenyl)thiazol-2-yl)bicyclo[2.2.2]octan-1-yl)carbamate] as the compound, how does the EC50 [1] read?
A: The EC50 was ≤ 0.1 µM.

Q: What about the EC50 [2] of the same compound?
A: Its EC50 is > 1 µM.

Q: `CC(C)OC(=O)N[C@H]1CC[C@H](c2ncc(-c3ccc(NC(=O)NCc4ccc(O)cc4)cc3S(=O)(=O)NC(C)(C)C)s2)CC1` [Ex. 73, trans-isopropyl N-[4-[5-[2-(tert-butylsulfamoyl)-4-[(4-hydroxyphenyl)methylcarbamoylamino]phenyl]thiazol-2-yl]cyclohexyl]carbamate] was tested. Which EC50 [1] did it give?
A: The EC50 was ≤ 0.1 µM.

Q: What about the EC50 [2] of the same compound?
A: The EC50 was > 1 µM.

Q: Which results are given for `CC(C)NC(=O)OC12CCC(c3ncc(-c4ccc(NC(=O)NCc5ccccc5)cc4S(=O)(=O)NC(C)(C)C)s3)(CC1)CC2` [Ex. 61, [1-[5-[4-(benzylcarbamoylamino)-2-(tert-butylsulfamoyl)phenyl]thiazol-2-yl]-4-bicyclo[2.2.2]octanyl]N-isopropylcarbamate]?
A: EC50 [1]: > 1 µM; EC50 [2]: > 1 µM

Q: How did the EC50 [1] turn out when `CC(C)OC(=O)Nc1ccc(-c2cnc(N3CC(NC(=O)OC(C)C)C3)s2)c(S(=O)(=O)NC(C)(C)C)c1` [Ex. 46, isopropyl N-[3-(tert-butylsulfamoyl)-4-[2-[3-(isopropoxycarbonylamino)azetidin-1-yl]thiazol-5-yl]phenyl]carbamate] was run?
A: Its EC50 is > 1 µM.

Q: And the EC50 [2]?
A: Its EC50 is > 1 µM.

Q: `CC(C)OC(=O)NC12CCC(c3ncc(-c4ccc(NC(=O)NCc5ccccc5)cc4S(=O)(=O)NC(C)(C)C)s3)(CC1)CC2` [Ex. 18, isopropyl (4-(5-(4-(3-benzylureido)-2-(N-(tert-butyl)sulfamoyl)phenyl)thiazol-2-yl)bicyclo[2.2.2]octan-1-yl)carbamate] was tested. Which EC50 [1] did it give?
A: The EC50 was ≤ 0.1 µM.

Q: And the EC50 [2]?
A: Its EC50 is > 1 µM.

Q: Which results are given for `CC(C)OC(=O)N1CCC(c2ncc(-c3ccc(NC(=O)NCc4ccccn4)cc3S(=O)(=O)NC(C)(C)C)s2)CC1` [Ex. 4, isopropyl 4-[5-[2-(tert-butylsulfamoyl)-4-(2-pyridylmethylcarbamoylamino)phenyl]thiazol-2-yl]piperidine-1-carboxylate]?
A: EC50 [1]: > 1 µM; EC50 [2]: > 1 µM

Q: Which EC50 [1] does the source give for `CC(C)OC(=O)N[C@H]1CC[C@H](c2ncc(-c3ccc(NC(=O)N[C@@H](C)c4ccccc4)cc3S(=O)(=O)NC(C)(C)C)s2)CC1` [Ex. 26, isopropyl ((1S,4r)-4-(5-(2-(N-(tert-butyl)sulfamoyl)-4-(3-((S)-1-phenylethyl)ureido)phenyl)thiazol-2-yl)cyclohexyl)carbamate] here?
A: The EC50 was ≤ 0.1 µM.

Q: And the EC50 [2]?
A: Its EC50 is > 1 µM.

Q: Which EC50 [1] does the source give for `CC(C)OC(=O)NC12CCC(c3ncc(-c4ccc(NC(=O)NCc5ccccn5)cc4S(=O)(=O)NC(C)(C)C)s3)(CC1)CC2` [Ex. 19, isopropyl (4-(5-(2-(N-(tert-butyl)sulfamoyl)-4-(3-(pyridin-2-ylmethyl)ureido)phenyl)thiazol-2-yl)bicyclo[2.2.2]octan-1-yl)carbamate] here?
A: The EC50 was ≤ 0.1 µM.

Q: And the EC50 [2]?
A: Its EC50 is > 1 µM.

Q: `CC(C)OC(=O)N[C@H]1CC[C@H](c2ncc(-c3ccc(NC(=O)NCc4ccccc4)cc3S(=O)(=O)NC(C)(C)CO)s2)CC1` [Ex. 74, trans-isopropyl N-[4-[5-[4-(benzylcarbamoylamino)-2-[(2-hydroxy-1,1-dimethyl-ethyl)sulfamoyl]phenyl]thiazol-2-yl]cyclohexyl]carbamate] was tested. Which EC50 [1] did it give?
A: Its EC50 is ≤ 0.1 µM.

Q: And the EC50 [2]?
A: Its EC50 is > 1 µM.

Q: `CC(C)OC(=O)NC1CCC(c2ncc(-c3ccc(NC(=O)OCc4ccccc4)cc3S(=O)(=O)NC(C)(C)C)s2)CC1` (centres unmarked) [Ex. 39, benzyl (3-(N-(tert-butyl)sulfamoyl)-4-(2-((1r,4r)-4-((isopropoxycarbonyl)amino)cyclohexyl)thiazol-5-yl)phenyl)carbamate] was tested. Which EC50 [1] did it give?
A: Its EC50 is ≤ 0.1 µM.

Q: What about the EC50 [2] of the same compound?
A: Its EC50 is > 1 µM.

Q: `CC(C)OC(=O)NC12CCC(c3ncc(-c4ccc(NC(=O)N[C@H](C)c5ccccn5)cc4S(=O)(=O)NC(C)(C)C)s3)(CC1)CC2` [Ex. 16, isopropyl (R)-(4-(5-(2-(N-(tert-butyl)sulfamoyl)-4-(3-(1-(pyridin-2-yl)ethyl)ureido)phenyl)thiazol-2-yl)bicyclo[2.2.2]octan-1-yl)carbamate] was tested. Which EC50 [1] did it give?
A: The EC50 was ≤ 0.1 µM.

Q: And the EC50 [2]?
A: Its EC50 is > 1 µM.
